pIC50: −log10 of the molar value. Where two headings read alike, the source gives them in different places. A value given as a limit tells only on which side of the number the result lay.

The target in series [1] is T1, BCRP (Homo sapiens, UniProt Q9UNQ0).
T1 sequence (Q9UNQ0 1-655): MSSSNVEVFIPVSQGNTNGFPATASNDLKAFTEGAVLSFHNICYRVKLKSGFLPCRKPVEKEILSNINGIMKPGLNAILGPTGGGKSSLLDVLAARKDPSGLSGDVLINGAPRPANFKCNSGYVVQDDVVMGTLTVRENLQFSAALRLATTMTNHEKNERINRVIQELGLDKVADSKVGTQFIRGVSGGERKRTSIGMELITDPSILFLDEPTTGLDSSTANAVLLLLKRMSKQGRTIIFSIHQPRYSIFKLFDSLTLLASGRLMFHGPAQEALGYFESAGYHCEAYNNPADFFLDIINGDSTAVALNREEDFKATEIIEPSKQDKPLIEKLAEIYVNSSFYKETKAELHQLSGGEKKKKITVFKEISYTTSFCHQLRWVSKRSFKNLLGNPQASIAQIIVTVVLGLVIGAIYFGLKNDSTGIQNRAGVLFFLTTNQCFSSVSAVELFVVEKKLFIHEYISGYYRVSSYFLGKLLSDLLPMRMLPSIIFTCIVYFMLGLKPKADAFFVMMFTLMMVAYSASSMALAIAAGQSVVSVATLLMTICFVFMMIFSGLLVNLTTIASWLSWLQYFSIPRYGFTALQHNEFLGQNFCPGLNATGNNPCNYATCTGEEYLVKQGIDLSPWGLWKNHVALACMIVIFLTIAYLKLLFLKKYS
The series is classed as biochemical.

The format of series [2] is in vivo, human. The conditions noted are these: rosuvastatin 10 mg; for AUC(0-inf) / half-life: plasma; for AUC(0-inf): AUC0–∞; for half-life: t ½.
A short description of series [3]: Pharmacokinetics of allopurinol and febuxostat in healthy volunteers. The series is classed as in vivo, human. The conditions noted are these: for variation of AUC0–24 between individual participants / variation of Cmax between individual participants: 300 mg allopurinol or 120 mg febuxostat once daily.
The test system of series [4] is BCRP. The conditions noted are these: in vitro; cited from earlier work.
The conditions of series [5]: cited from earlier work.
The subject of series [6] is OATP1B1. The conditions noted are these: in vitro; cited from earlier work.
Series [7] concerns OATP1B3. Particulars: in vitro; cited from earlier work.
The subject of series [8] is OATP2B1. The conditions noted are these: in vitro; cited from earlier work.
Series [9] concerns breast cancer resistance protein (BCRP; encoded by ABCG2). Particulars: in vitro; cited from earlier work.
The conditions of series [10]: mice; cited from earlier work.
The test system of series [11] is CYP2C8. The conditions noted are these: in vitro; cited from earlier work.
The subject of series [12] is CYP2D6. Particulars: in vitro; cited from earlier work.
Series [13] relates to CYP1A2. The conditions noted are these: in vitro; cited from earlier work.
The test system of series [14] is CYP2C9. The conditions noted are these: in vitro; cited from earlier work.
For series [15], the system named is CYP2C19. Particulars: in vitro; cited from earlier work.
Series [16] has as its system CYP3A4. The conditions noted are these: in vitro; cited from earlier work.
The conditions of series [17]: in vivo in humans; cited from earlier work.
For series [18] the following is noted: in vivo in humans; cited from earlier work. The source holds these as a separate data set.
The conditions of series [19]: patients with established cardiovascular disease; cited from earlier work.
For series [20] the following is noted: cited from earlier work. The source holds these as a separate data set.
The conditions of series [21]: in vivo in humans; cited from earlier work. The source holds these as a separate data set.
Setting [22] is: 120 mg febuxostat once daily vs placebo.
[23] abbreviates: human, oral, allopurinol phase (300 mg once daily days 1–7), geometric mean (geometric CV).
[24] abbreviates: human, oral, febuxostat phase (120 mg once daily days 4–7), geometric mean (geometric CV).

Broadly, the pIC50 is the negative decadic logarithm of the IC50, by convention in mol/L. What is called AUC(0-t) is exposure summed from dosing to a finite time, without extrapolation to infinity. A higher AUC(0-t) goes with more exposure. For orientation: Cmax means the maximum level reached in the sampled fluid or tissue. In series [1], `Oc1ncnc2[nH]ncc12` [allopurinol] gave a pIC50 of under 3.70. Also, the “effect on the pharmacokinetics of rosuvastatin” value in series [2] (300 mg allopurinol once daily for 7 days vs placebo) was “no statistically significant effect”. Further, in series [3], the “variation of AUC0–24 between individual participants” value came to 4.7 fold and the “variation of Cmax between individual participants” value came out at 1.8 fold. In [3] (human, plasma, oral, 300 mg), the AUC(0-t) came to 5700 ng·h/mL and the Cmax came to 2000 ng/mL. Moreover, in series [4], the “inhibition of BCRP” value was “have not inhibited”.
In the case of `CC1=NN(c2ccc(C)c(C)c2)C(=O)/C1=N\Nc1cccc(-c2cccc(C(=O)O)c2)c1O` [eltrombopag], the “increase of rosuvastatin AUC” value in [5] is recorded as 1.6 fold. Further, the “inhibition of OATP1B1” value in series [6] is on record as “inhibits”. For the same compound, the “inhibition of OATP1B3” value in series [7] is recorded as “inhibits”. The “inhibition of OATP2B1” value in [8] is “inhibits”.
Broadly, the half-life is the time in which the quantity being followed falls by half. On to `Cc1nc(-c2ccc(OCC(C)C)c(C#N)c2)sc1C(=O)O` [febuxostat], for which the negative-log IC50 (pIC50) in series [1] was 6.46. In series [2] (setting [22]), the “effect on Clrenal of rosuvastatin” value is “remained unaffected” and the “effect on t ½ of rosuvastatin” value was “remained unaffected”. In series [3], the “variation of AUC0–24 between individual participants” value is on record as 3.0 fold and the “variation of Cmax between individual participants” value stood at 5.0 fold. For the same compound, the “increase of AUC0–24 in individuals homozygous for SLCO1B1 c.521T>C” value in series [3] (compared with the noncarriers and one heterozygote, data not shown, preliminary finding) stood at 1.8 fold. In [3] (human, plasma, oral, 120 mg), this compound showed an exposure AUC(0-t) of 12300 ng·h/mL, a Cmax of 4300 ng/mL and a half-life of 6 h. The “inhibition of BCRP mediated transport of urate” value in [9] is on record as “strongly inhibit”. In addition, in series [10], the “exposure to the BCRP substrate sulfasalazine” value is recorded as “markedly increase”. The “inhibition of CYP2C8” value in series [11] was “weak inhibitor”. Moreover, the “inhibition of CYP2D6” value in [12] is “weak inhibitor”. In addition, in [13], the “inhibition of CYP1A2” value is “does not inhibit”. The “inhibition of CYP2C9” value in series [14] is given as “does not inhibit”. Moreover, the “inhibition of CYP2C19” value in series [15] was “does not inhibit”. In addition, in series [16], the “inhibition of CYP3A4” value was “does not inhibit”. Moreover, in series [17], the “effect on the pharmacokinetics of rosiglitazone” value was “no effect”. The “increase of the AUC of desipramine” value in series [18] is given as 12%. The “all-cause and cardiovascular mortality compared with allopurinol” value in series [19] was “increases”.
Turning to `O=c1[nH]c(=O)c2c[nH]nc2[nH]1` [oxypurinol], in series [4], the “inhibition of BCRP” value is reported as “have not inhibited”.
Take `O=C(O)C[C@H](O)C[C@H](O)/C=C/c1c(C2CC2)nc2ccccc2c1-c1ccc(F)cc1` [pitavastatin]: the “effect of the ABCG2 c.421C>A variant on AUC” value (shortened to “effect … on AUC”) in [20] is listed as “no significant effect”.
For `CC[C@H](C)C(=O)O[C@H]1C[C@H](O)C=C2C=C[C@H](C)[C@H](CC[C@@H](O)C[C@@H](O)CC(=O)O)[C@H]21` [pravastatin], in series [20], the “effect … on AUC” value is listed as “no significant effect”.
Broadly, the AUC(0-inf) is the area under the concentration-time curve extrapolated to infinity. Read a low AUC(0-inf) as low exposure. Compound `CC(C)c1nc(N(C)S(C)(=O)=O)nc(-c2ccc(F)cc2)c1/C=C/[C@@H](O)C[C@@H](O)CC(=O)O` [rosuvastatin] had a CL renal in series [2] (human, plasma and urine, oral, Clrenal, allopurinol phase (300 mg once daily days 1–7), geometric mean (geometric CV)) of 225 mL/min. In series [2] (setting [23]), this compound showed an AUC(0-inf) of 53.5 ng·h/mL and a half-life of 10.9 h. In series [2] (setting [24]), this compound showed an AUC(0-inf) of 82.5 ng·h/mL and a half-life of 6.3 h. Moreover, the “Ae, amount excreted into urine” value in series [2] (allopurinol phase (300 mg once daily days 1–7), geometric mean (geometric CV)) is recorded as 0.45 (101%) mg. Besides, in series [2] (geometric mean ratio), the “AUC0–∞, allopurinol phase to placebo phase ratio (90% CI)” value is reported as 1.26 (0.98–1.61); P = 0.13; the “AUC0–∞, febuxostat phase to placebo phase ratio (90% CI)” value is 1.93 (1.51–2.48); P = 0.001; the “Ae, allopurinol phase to placebo phase ratio (90% CI)” value is on record as 0.99 (0.69–1.43); P = 0.98; the “Ae, febuxostat phase to placebo phase ratio (90% CI)” value was 1.76 (1.16–2.66); P = 0.03. Besides, in series [2] (geometric mean ratio), the “Clrenal, allopurinol phase to placebo phase ratio (90% CI)” value is recorded as 0.86 (0.65–1.14); P = 0.36; the “Clrenal, febuxostat phase to placebo phase ratio (90% CI)” value is on record as 0.82 (0.58–1.14); P = 0.30; the “Cmax, allopurinol phase to placebo phase ratio (90% CI)” value is listed as 1.22 (1.02–1.47); P = 0.08; the “Cmax, febuxostat phase to placebo phase ratio (90% CI)” value is reported as 2.13 (1.76–2.58); P = 5 × 10^−5. Moreover, in series [2] (geometric mean ratio), the “t ½, allopurinol phase to placebo phase ratio (90% CI)” value is recorded as 1.72 (1.03–2.85); P = 0.08 and the “t ½, febuxostat phase to placebo phase ratio (90% CI)” value is 1.00 (0.75–1.33); P = 0.99. Also, in [21], the “increase of AUC by homozygosity for SLCO1B1 c.521T>C” value is given as 1.7–2.2 fold and the “increase of Cmax by homozygosity for SLCO1B1 c.521T>C” value was 1.8–2.7 fold.
For `CCC(C)(C)C(=O)O[C@H]1C[C@@H](C)C=C2C=C[C@H](C)[C@H](CC[C@@H](O)C[C@@H](O)CC(=O)O)[C@H]21` [simvastatin acid], in series [20], the “effect … on AUC” value is “no significant effect”.

The values are drawn from paper PMC7719384 (Clinical and Translational Science, 2020).
